Source: publication PMC2933276 (Nature structural & molecular biology, 2010)
Each block holds one molecule with its values, some of them ahead of it.

Assays:
[1] = molecular target: T1, S. pombe Dcp2 regulatory domain (residues 1-94) (Schizosaccharomyces pombe, UniProt O13828); experiment: […]-HSQC NMR titration; format: binding
T1 sequence (O13828 1-94): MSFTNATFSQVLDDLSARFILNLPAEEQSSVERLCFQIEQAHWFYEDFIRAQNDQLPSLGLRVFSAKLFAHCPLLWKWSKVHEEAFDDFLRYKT

[2] = molecular target: T2, S. pombe Dcp2 catalytic domain (residues 95-243) (Schizosaccharomyces pombe, UniProt O13828); experiment: […]-HSQC NMR titration; format: binding
T2 sequence (O13828 95-243): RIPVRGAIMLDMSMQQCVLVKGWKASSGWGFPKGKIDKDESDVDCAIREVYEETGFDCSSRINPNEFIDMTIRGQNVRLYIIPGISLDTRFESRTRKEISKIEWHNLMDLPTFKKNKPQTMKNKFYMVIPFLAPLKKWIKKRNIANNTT

[3] = molecular target: T3, S. pombe Dcp1-Dcp2 complex (Dcp2 1-243, Dcp1 1-127; D1D2) (Schizosaccharomyces pombe, UniProt O13828); experiment: SAXS, ligand-induced compaction; format: binding; settings: 10 mM m7GpppA; pH 7.0, 150 mM NaCl, 50 mM HEPES, 2 mM DTT
T3 sequence (O13828 1-243): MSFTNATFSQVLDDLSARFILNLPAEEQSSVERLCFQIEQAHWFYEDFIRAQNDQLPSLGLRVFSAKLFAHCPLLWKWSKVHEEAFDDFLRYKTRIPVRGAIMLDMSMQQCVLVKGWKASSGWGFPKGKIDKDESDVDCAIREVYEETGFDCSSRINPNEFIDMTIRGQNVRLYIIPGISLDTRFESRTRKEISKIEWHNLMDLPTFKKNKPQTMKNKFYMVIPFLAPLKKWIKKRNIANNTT
T3 sequence (Q9P805 1-127 partner): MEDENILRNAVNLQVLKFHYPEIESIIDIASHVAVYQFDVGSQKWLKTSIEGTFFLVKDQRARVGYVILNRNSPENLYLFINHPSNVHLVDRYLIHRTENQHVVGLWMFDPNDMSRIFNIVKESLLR

[4] = molecular target: T4, S. pombe Dcp2 (spDcp2) 1–243 (S. pombe, UniProt O13828 1-243); experiment: SEC
T4 sequence: T3 sequence (O13828 1-243)

S. pombe Dcp2 1–243 W43A = S. pombe Dcp2 1–243 W43A (S. pombe, UniProt O13828 1-243, W43A); experiment: SEC
[5] = molecular target: S. pombe Dcp2 1–243 R167Q (S. pombe, UniProt O13828 1-243, R167Q); experiment: SEC

Molecule: Nc1nc2c(ncn2[C@@H]2O[C@H](COP(=O)(O)OP(=O)(O)O)[C@@H](O)[C@H]2O)c(=O)[nH]1 [GDP]
Kd [1]: ~40 mM

Molecule: C[n+]1cn([C@@H]2O[C@H](COP(=O)(O)OP(=O)(O)OP(=O)(O)OC[C@H]3O[C@@H](n4cnc5c(N)ncnc54)[C@H](O)[C@@H]3O)[C@@H](O)[C@H]2O)c2nc(N)[nH]c(=O)c21 [m^7GpppA]
SAXS, ligand-induced compaction [3]: reveals a compaction in the presence of cap-analog m^7GpppA that is small but reproducible

The remaining lines, values ahead:

Kd [2]: 12 mM | Kd [1]: ~12 mM
Molecule: C[n+]1cn([C@@H]2O[C@H](COP(=O)(O)OP(=O)(O)O)[C@@H](O)[C@H]2O)c2nc(N)[nH]c(=O)c21 [m^7GDP]

binding result [4]: binds | binding result (S. pombe Dcp2 1–243 W43A): binds | binding result [5]: binds
B1: S. pombe Dcp1 1–127 (natural protein)
chain: T3 sequence (Q9P805 1-127 partner)
